Measured values: US20110028398A1, “METHODS FOR TREATING AND LIMITING FIBROTIC DISORDERS AND KELOIDS” (The Arizona Board of Regents, a body corporate acting for …, priority 2006, published 2011)

Key:
[1] = test system: CTGF expression in renal fibroblasts; conditions: Ott et al., 2003; cited from earlier work
[2] = test system: CTGF expression in human keloid fibroblasts; assay: TGF-β1-induced CTGF expression, Western blot densitometry related to GAPDH; type: cell-based
Protocol: Fibroblast culture: Human keloid fibroblasts were grown in 10 cm^2 dishes to 70% confluence in DMEM with 10% FBS and additional penicillin and streptomycin (1%), at 37° C. and 10% CO2. Cells were serum starved in DMEM containing 0.5% FBS for 48 h before the experiment. At the start of the assay, fresh media was added to the dishes, and cells were either untreated (control) or treated with TGF-β1 (doses ranging from 0.6 to 5 ng/mL), P20 phosphopeptide (doses ranging from 50-200 μM), forskolin (FSK, 10 μM) or SNAP (500 μM) for 24 h. To verify the influence of serum starvation, we also had cells in 10% FBS containing medium (control high serum).
Western blot analysis: At the end of the experiment, cells were rinsed with PBS, and homogenized using UDC buffer. Lysates were mixed, centrifuged (6000×g) for 20 min, and the supernatant was used for determination of CTGF and collagen expression. Samples (20 μg of protein) were loaded on 15 or 10% SDS-PAGE gels, and the proteins were electrophoretically transferred to Immobilon membranes. […] Protein-antibody complexes were visualized using the Odyssey direct infrared fluorescence imaging system (Li-Cor, Lincoln, Nebr.). […]
P20 treatment and CTGF expression: Human keloid fibroblasts were serum-starved in DMEM medium containing 0.5% FBS for 48 hours, stimulated with TGF-beta1 doses ranging from 1.2 to 5 ng/mL and concomitantly treated with the P20 phosphopeptide (50, 100 or 200 μM) for 24 hours. Western blot bands were quantified by densitometry, and CTGF expression was related to GAPDH expression to correct for loading differences. […]
Treatment with compounds that elevate cAMP and cGMP: We next evaluated the influence of compounds that elevate cAMP (Forskolin, FSK) or cGMP (SNAP) on CTGF expression in keloid fibroblasts. […] Western blot bands were quantified by densitometry, and CTGF expression was related to GAPDH expression to correct for loading differences. […]

Compound: latrunculin
- CTGF expression [1]: decreased

Compound: C=C[C@@]1(C)CC(=O)[C@]2(O)[C@@]3(C)[C@@H](O)CCC(C)(C)[C@@H]3[C@H](O)[C@H](OC(C)=O)[C@@]2(C)O1 [FSK, forskolin]
- decrease of CTGF expression ([2]; TGF-β1-stimulated fibroblasts (2.5 ng/mL), FSK 10 μM, 24 h): ~50%

Compound: CC(=O)N[C@@H](C(=O)O)C(C)(C)SN=O (racemic) [SNAP]
- decrease of CTGF expression ([2]; TGF-β1-stimulated cells, SNAP 500 μM): did not decrease
- CTGF expression compared to untreated (control) cells ([2]; non-stimulated cells, SNAP 500 μM, p<0.05): two-time increase
